The IC50 is the concentration needed to halve the response being measured. Low readings indicate greater potency, high ones weaker potency.

Structures are written as SMILES. Bounds are passed on as bounds.

One series deals with A549 (lung cancer). The experiment in a line: Cytotoxicity test by MTT assay, A549. The series is classed as cell-based, human. To be noted: for IC50: Homo sapiens, A549, 48 h. As to the method:
(§1) A cytotoxicity test was measured by MTT assay. Each cell line was cultured in a 96-well plate at a density of 1×10^4 cells/well. After 24 hours, the culture medium containing 1% FBS (fetal bovine serum) was treated and reacted with compounds or solutions of compounds for 48 hours. MTT (3-(4,5-dimethylthiazol-2-yl)-2,5-diphenyltetrazolium bromide) solution (5 mg/mL) was added to each well and reacted for 4 hours in an incubator. […] After reacting in an incubator for 30 minutes, the formation of formazan was quantified using a microplate reader at an absorbance of 540 nm. […] The human cancer cell lines used herein are MCF-7 (breast cancer), MDA-MB-231 (breast cancer), HT-29 (colon cancer), DU145 (prostate cancer), U937 (myeloid leukemia), A549 (lung cancer), PANC-1 (pancreatic cancer) and MIA PaCa-2 (pancreatic cancer).
On the technique in general: Formazan colour is commonly taken as a measure of viable cells.

The test system of another series is U937 (myeloid leukemia). The experiment in a line: Cytotoxicity test by MTT assay, U937. The series is classed as cell-based, human. To be noted: for IC50: Homo sapiens, U-937, U937, 48 h. The procedure: as §1
The nature of series [1]: Cytotoxicity test by MTT assay, HEK293 normal cell line. It is filed as cell-based. To be noted: human, HEK293 cells (normal cell line). As to the method: (§2) A cytotoxicity test was measured by MTT assay. Each cell line was cultured in a 96-well plate at a density of 1×10^4 cells/well. After 24 hours, the culture medium containing 1% FBS (fetal bovine serum) was treated and reacted with compounds or solutions of compounds for 48 hours. MTT (3-(4,5-dimethylthiazol-2-yl)-2,5-diphenyltetrazolium bromide) solution (5 mg/mL) was added to each well and reacted for 4 hours in an incubator. […] After reacting in an incubator for 30 minutes, the formation of formazan was quantified using a microplate reader at an absorbance of 540 nm.

Another series deals with HT-29 (colon cancer). The series is described as follows: Cytotoxicity test by MTT assay, HT-29. It is filed as cell-based, human. To be noted: for IC50: Homo sapiens, HT-29, 48 h. As to the method:
as §1

A further series relates to DU145 (prostate cancer). The series is described as follows: Cytotoxicity test by MTT assay, DU145. To be noted: DU-145; for IC50: Homo sapiens, DU145, 48 h. It is filed as cell-based, human. The procedure:
as §1

The subject of series [2] is MDA-MB-231 (breast cancer). The series is described as follows: Cytotoxicity test by MTT assay, MDA-MB-231. The series is classed as cell-based, human. To be noted: for IC50: Homo sapiens, MBA-MB-231, 48 h. The procedure: as §1
For series [3], the system named is PANC-1 (human pancreatic cancer cell line). The experiment in a line: Cytotoxicity test by MTT assay, PANC-1. It is filed as cell-based. To be noted: for cytotoxicity at 30 µM: PANC-1, 30 μM, 48 h, read-out: Cell viability (% inhibition). As to the method:
(§3) A cytotoxicity test was measured by MTT assay. Each cell line was cultured in a 96-well plate at a density of 1×10^4 cells/well. […] MTT (3-(4,5-dimethylthiazol-2-yl)-2,5-diphenyltetrazolium bromide) solution (5 mg/mL) was added to each well and reacted for 4 hours in an incubator. […] After reacting in an incubator for 30 minutes, the formation of formazan was quantified using a microplate reader at an absorbance of 540 nm. […] At this time, sunitinib was used as a control group. […] The human cancer cell lines used herein are MCF-7 (breast cancer), MDA-MB-231 (breast cancer), HT-29 (colon cancer), DU145 (prostate cancer), U937 (myeloid leukemia), A549 (lung cancer), PANC-1 (pancreatic cancer) and MIA PaCa-2 (pancreatic cancer).

Series [4] concerns MCF-7 (human breast cancer cell line). The experiment in a line: Cytotoxicity test by MTT assay, MCF-7. To be noted: Homo sapiens, MCF7; for cytotoxicity at 30 µM: MCF-7, 30 μM, 48 h, read-out: Cell viability (% inhibition); for IC50: MCF-7, 48 h. The series is classed as cell-based. As to the method:
as §3

Series [5] in a line: Cytotoxicity test by MTT assay, CHO-K1 normal cell line. It is filed as cell-based. To be noted: Chinese hamster, CHO-K1 cells (normal cell line). As to the method: as §2

For `Cc1nc2c(c(C)c1O)/C(=C/c1ccc3ccccc3n1)C(=O)N2` [Compound I-24, (Z)-5-Hydroxy-4,6-dimethyl-3-(quinolin-2-ylmethylene)-1H-pyrrolo[2,3-b]pyridin-2(3H)-one], the “cytotoxicity compared with the reference drug sunitinib” value (in the series on A549 (lung cancer) (A-549); with U937 (myeloid leukemia) (U937); in the series on HT-29 (colon cancer) (HT-29); in the series on DU145 (prostate cancer); in series [2]) was “greater than or equal to that of the reference drug sunitinib” throughout. Also, the IC50 was 4.2 µM in the series on A549 (lung cancer); 6.67 µM in the series with U937 (myeloid leukemia); 4.57 µM in the series on HT-29 (colon cancer); 1.07 µM in the series with DU145 (prostate cancer); 2.81 µM in [2]. The molecule also registered an IC50 at 48 h in [1] of 46.8 µM.

As to `Cc1nc2c(c(C)c1O)/C(=C/c1ccoc1)C(=O)N2` [Compound I-28, (Z)-3-(Furan-3-ylmethylene)-5-hydroxy-4,6-dimethyl-1H-pyrrolo[2,3-b]pyridin-2(3H)-one], the cytotoxicity at 30 µM in series [3] (Homo sapiens) came to 26.1%; in [4] it was 66.3%. In addition, the 50% inhibitory concentration (IC50) is 22.9 µM in series [4], 31.5 µM with U937 (myeloid leukemia) and 22.9 µM in the series on DU145 (prostate cancer). The IC50 at 48 h in series [5] was greater than 90 µM; in [1], 19.9 µM.

Consider `Cc1cc(C)c(/C=C2\C(=O)Nc3nc(C)c(O)c(C)c32)[nH]1` [Compound I-36, (Z)-3-((3,5-Dimethyl-1H-pyrrol-2-yl)methylene)-5-hydroxy-4,6-dimethyl-1H-pyrrolo[2,3-b]pyridin-2(3H)-one], for which the cytotoxicity at 30 µM in series [3] (Homo sapiens) was determined as 44.7%; in [4] it was 47.3%. The IC50 in [4] came out at 31.6 µM; in the series with A549 (lung cancer), 13.9 µM; in the series with U937 (myeloid leukemia), 33.9 µM; with HT-29 (colon cancer), 16.6 µM; in series [2], 10.2 µM. In addition, the values for the IC50 at 48 h in series [5] and in series [1] were 50.1 µM and greater than 90 µM, respectively.

With `Cc1nc2c(c(C)c1O)/C(=C/c1[nH]c(C)c(C(=O)O)c1C)C(=O)N2` [Compound I-37, (Z)-5-((5-Hydroxy-4,6-dimethyl-2-oxo-1H-pyrrolo[2,3-b]pyridin-3(2H)-ylidene)methyl)-2,4-dimethyl-1H-pyrrole-3-carboxylic acid], the results for the cytotoxicity at 30 µM in [3] (Homo sapiens) and in [4] were 55.8% and 60.4%, respectively. For the same molecule, the 50% inhibitory concentration (IC50) in series [4] turned out to be 14.8 µM; in the series on A549 (lung cancer), 19.9 µM; in the series on U937 (myeloid leukemia), 14.8 µM; with HT-29 (colon cancer) it was 26.2 µM; in [2], 19.5 µM. Further, the IC50 at 48 h in series [5] was 33.1 µM; in series [1], 38 µM.

Turning to `CCOC(=O)c1c(C)[nH]c(/C=C2\C(=O)Nc3nc(C)c(O)c(C)c32)c1C` [Compound I-38, (Z)-Ethyl-5-((5-hydroxy-4,6-dimethyl-2-oxo-1H-pyrrolo[2,3-b]pyridin-3(2H)-ylidene)methyl)-2,4-dimethyl-1H-pyrrole-3-carboxylate], the cytotoxicity at 30 µM is 35.7% in series [3] (Homo sapiens) and 41.7% in [4]. Besides, the concentration for half-maximal inhibition (IC50) in [4] was 39.8 µM; in the series on A549 (lung cancer), 18.2 µM; in the series with U937 (myeloid leukemia) it was 12.9 µM; with HT-29 (colon cancer), 22.9 µM; in series [2], 24.5 µM. Further, the half-maximal inhibitory concentration (IC50) at 48 h is 24 µM in [5] and greater than 90 µM in series [1].

As for `Cc1nc2c(c(C)c1O)/C(=C/c1[nH]c(C)c(C(=O)NCCN3CCCCC3)c1C)C(=O)N2` [Compound I-42, (Z)-5-((5-Hydroxy-4,6-dimethyl-2-oxo-1H-pyrrolo[2,3-b]pyridin-3(2H)-ylidene)methyl)-2,4-dimethyl-N-(2-(piperidin-1-yl)ethyl)-1H-pyrrole-3-carboxamide], the cytotoxicity at 30 µM in series [3] (Homo sapiens) was 70.7%; in series [4], 63.4%. Further, the half-inhibitory concentration (IC50) in [4] was 8.7 µM; in the series with A549 (lung cancer) it was 13.2 µM; in the series on U937 (myeloid leukemia), 14.8 µM; in the series with HT-29 (colon cancer) it was 15.2 µM; in series [2] it was 8.12 µM. The IC50 at 48 h in series [5] was 51.3 µM; in [1], 21.4 µM.

For the molecule `Cc1nc2c(c(C)c1O)/C(=C/c1[nH]c(C)c(C(=O)N3CCCCC3)c1C)C(=O)N2` [Compound I-43, (Z)-3-((3,5-Dimethyl-4-(piperidine-1-carbonyl)-1H-pyrrol-2-yl)methylene)-5-hydroxy-4,6-dimethyl-1H-pyrrolo[2,3-b]pyridin-2(3H)-one], the cytotoxicity at 30 µM in series [3] (Homo sapiens) is 38.5%; in [4] it was 50.5%. Also, the half-maximal inhibitory concentration (IC50) in [4] came to 26.9 µM; in the series on A549 (lung cancer) it was 12.1 µM; in the series with U937 (myeloid leukemia), 9.77 µM; with HT-29 (colon cancer) it was 16.6 µM; in series [2], 14.8 µM. Also, the IC50 at 48 h in series [5] was 14.8 µM; in series [1], greater than 90 µM.

For the molecule `Cc1nc2c(c(C)c1O)/C(=C/c1[nH]c(C)c(C(=O)N3CCCC3)c1C)C(=O)N2` [Compound I-44, (Z)-3-((3,5-Dimethyl-4-(pyrrolidine-1-carbonyl)-1H-pyrrol-2-yl)methylene)-5-hydroxy-4,6-dimethyl-1H-pyrrolo[2,3-b]pyridin-2(3H)-one], the cytotoxicity at 30 µM in series [3] (Homo sapiens) was determined as 31.8%; in [4], 47.7%. For the same molecule, the half-maximal inhibitory concentration (IC50) in series [4] stood at 34.7 µM; in the series on A549 (lung cancer) it was 50.1 µM; in the series on U937 (myeloid leukemia), 52.5 µM; with HT-29 (colon cancer) it was 43.4 µM; in series [2], 43.6 µM. In addition, the IC50 at 48 h in series [5] is 58.9 µM; in [1], greater than 90 µM.

For `Cc1nc2c(c(C)c1O)/C(=C/c1[nH]c(C)c(C(=O)N3CCN(C)CC3)c1C)C(=O)N2` [Compound I-45, (Z)-3-((3,5-Dimethyl-4-(4-methylpiperazine-1-carbonyl)-1H-pyrrol-2-yl)methylene)-5-hydroxy-4,6-dimethyl-1H-pyrrolo[2,3-b]pyridin-2(3H)-one], the figures for the cytotoxicity at 30 µM in [3] (Homo sapiens) and in [4] were 48.7% and 60.7%, respectively. For the same molecule, the IC50 in series [4] worked out at 10.2 µM; in the series on A549 (lung cancer), 26.3 µM; in the series on U937 (myeloid leukemia) it was 26.2 µM; in the series with HT-29 (colon cancer) it was 36.1 µM; in series [2], 16.2 µM. Besides, the results for the half-inhibitory concentration (IC50) at 48 h in series [5] and in [1] were 23.4 µM and 38 µM, respectively.

For the molecule `Cc1nc2c(c(C)c1O)/C(=C/c1[nH]c(C)c(C(=O)N3CCOCC3)c1C)C(=O)N2` [Compound I-46, (Z)-3-((3,5-Dimethyl-4-(morpholine-4-carbonyl)-1H-pyrrol-2-yl)methylene)-5-hydroxy-4,6-dimethyl-1H-pyrrolo[2,3-b]pyridin-2(3H)-one], the half-inhibitory concentration (IC50) in series [3] (Homo sapiens, PANC-1, 48 h) was determined as 11.5 µM; in series [4] it was 12.6 µM; in the series on A549 (lung cancer), 30.1 µM; in the series with HT-29 (colon cancer), 57.5 µM; in the series on DU145 (prostate cancer), 22.9 µM; in [2], 14.5 µM. For the same molecule, the cytotoxicity at 30 µM came out at 71.1% in [3] (Homo sapiens) and 71.2% in [4]. Also, the “cytotoxicity compared with the reference drug sunitinib” value in [3] (PANC-1) is “greater than or equal to that of the reference drug sunitinib”. The half-inhibitory concentration (IC50) at 48 h in series [5] and in series [1] was greater than 90 µM each time.

Turning to `COc1cccc2c1C(=O)c1c(O)c3c(c(O)c1C2=O)C[C@@](O)(C(=O)CO)C[C@@H]3O[C@H]1C[C@H](N)[C@H](O)[C@H](C)O1` [Doxorubicin, reference compound], the IC50 at 48 h in series [5] came out at 12.1 µM; in series [1], 0.32 µM.

Source of the values: patent publication US10544140B2, “Pharmaceutical composition containing, as active ingredient, 7-azaindolin-2-one derivative or pharmaceutically acceptable salt thereof” (LG CHEM, LTD., priority 2015, dated 2020).
